US20210206744A1, “BENZIMIDAZOLE COMPOUNDS AS AGRICULTURAL CHEMICALS” (REDAG CROP PROTECTION LTD, priority 2017, published 2021)

Assays:
Pythium ultimum = assay: Amended agar assay; format: cell-based; details: Globisporangium ultimum; potato dextrose agar amended with compound at 2 ppm, 18° C., 2 to 7 days; read-out: % control Pythium ultimum (% reduction in colony growth compared to the control plate)
Procedure: Amended Agar Assay Testing was carried out on potato dextrose agar (PDA) amended with each compound at a test concentration of 2 ppm. Amended agar was poured into three replicate 9 cm petri dishes. Each replicate dish was inoculated in the centre with a 5 mm agar plug taken from the leading edge of a culture aged between 2 and 7 days old; the age of the culture was dependent on the growth rate of the pathogen being tested. The test pathogen was Pythium ultimum. Plates were incubated at 18° C. and the diameter of each colony measured before growth on the fastest growing plate reached the plate edge. This varied between 2 and 7 days depending on the growth rate of test pathogens. The % reduction in colony growth compared to the control plate was calculated. The results are provided in Table 1, in which D represents no control detected at this concentration; C represents up to 50% control; B from 50 to 99% control; and A represents a control of greater than 99%, i.e. no detectable colony growth.

Phytophthora cactorum = assay: 96 well plate test; format: cell-based; details: Phytophthora cactorum; agar amended to 2, 0.2, 0.02 and 0.002 ppm, 18° C., assessed after 2 to 3 days
Procedure: Compounds were screened in 96 well plates with 10 compounds per plate. Each compound was screened using agar amended to 2, 0.2, 0.02 and 0.002 ppm, with proline at 50 and 10 ppm and 0.2% DMSO used as controls. Each test concentration and standard was replicated twice on a plate. Compounds were screened against Phytophthora cactorum. The agar used in the test is a 1% potato dextrose agar. 1000 spores/mL agar were added to the appropriate agar.
A ×10 stock solution in 2% DMSO was produced for each dose i.e. 20, 2, 0.2 and 0.02 ppm, and 10 μl of this added to the appropriate wells on the plate. An equivalent amount of 2% DMSO and proline stock at 500 and 100 ppm were added for the controls. To each well 90 μl of the appropriate agar spore suspension was added to give the required final well concentrations. Plates were incubated at room temperature (18° C.) and assessed after 2 to 3 days. The amount of pathogen growth in each well was compared to the DMSO controls and an EC50 concentration was calculated. The results are provided in Table 1 in which G represents no control detected at 2 ppm, F represents an EC50 of ≥2 ppm, and E represents an EC50 of less than 2 ppm.

EC50 (Phytophthora cactorum) [µg/mL] | Structure (SMILES) | inhibition of growth at 2 ppm (Pythium ultimum) [%]
< 2 | Cn1nnnc1-n1c(OCc2cccc(NC(=O)OC3CCCC3)n2)nc2c(Br)cccc21 [Compound 40] | > 99
< 2 | Cn1nnnc1-n1c(OCc2cccc(NC(=O)C(F)(F)F)n2)nc2c(Cl)cccc21 [Compound 29] | > 99
